# Source: patent publication US10220112B2, “Cyclic antimicrobial pseudopeptides and uses thereof” (INSERM (INSTITUT NATIONAL DE LA SANTE ET DE LA RECHERCHE …, priority 2014, dated 2019)
# Read-outs that look alike come from different tables or passages of the source. Starred links: 1 amine or outer side, 2 acyl side, 3 side chain; linkers in the order of their positions; H or OH if unused. Non-standard residues stand in square brackets, D forms with d. Residues, ends and D or L forms follow the SMILES beside them. azaβ3(1Nal) = O=C(CN(Cc1cccc2ccccc12)N[*:1])[*:2]; X2 = O=C(CN(Cc1ccc2ccccc2c1)N[*:1])[*:2]; X1 = O=C(CN(CC(O)CO)N[*:1])[*:2]
# Tests used:
# [1] = test system: human erythrocytes; test: Lytic activity against human erythrocytes; format: cell-based; details: for Human cells H50 (peptide concentration at which half of the human erythrocytes are lysed): Table 1, 2 h 37°C, maximal concentration 1 mg/mL; for Human cells % hemolysis at 500 μM / Human cells H50: Table 2; for Human cells H50: maximal concentration 500 μM; for hemolysis at 0.2 mg/mL: 0.2 mg/mL (50 μM PepA1, 160 μM Pep11), value expected when choosing SEM concentration; for hemolysis at the MIC: human erythrocytes, at the peptide's MIC
# Protocol: Human blood was collected from EFS (‘Etablissement Francais du Sang’) in Rennes (France). […] After centrifugation, the absorbance of the supernatant was measured at 414 nm. Three wells were positive controls, where the RBC were mixed with water 1% Triton X-100, in these wells the totality of RBC were hemolyzed and the release of hemoglobin was considered to be 100%. Three wells were negative controls, where the RBC were mixed with PBS buffer, in these wells hemolysis was considered to be null. The percentage of hemolysis in each test well was calculated by comparing with controls. For each peptide, bloods from three different donors were tested.
# [2] = test system: Escherichia coli strain K12 XL-Blue; details: for E. coli MIC: strain K12 XL-Blue; for Minimum Bactericidal Concentration (MBC), E. coli: no colonies on BHI agar after 24 h 37°C
# Protocol: (§1) The antibacterial activity of the synthesized peptides was measured using a standard microdilution assay. Two bacterial species were tested, Staphylococcus aureus strain Newman and Escherichia coli strain K12 XL-Blue. Bacterial strains were subcultured in Mueller-Hinton broth. […] Bacteria were grown to an optical density (600 nm) of 0.5 and diluted 10^3 times in MH broth. Cell density in wells was 10^5 cfu/mL. 100 μL of this suspension was mixed with 100 μL of 2-fold serial dilutions of peptides in the well of a microtitre plate. Purified peptides were first dissolved in appropriate solvent to a final concentration of 2 mg/mL, in the microtitre plate, dilutions were made in MH broth from 1 to 0.004 mg/mL. […] Results obtained in massic concentrations were converted to molar concentrations for proper comparisons. Tests were performed in triplicate.
# (§2) The results presented in Table 2 below were obtained in triplicate as described in the case of Table 1 except that the starting concentration was […] instead of 1 mg/mL.
# [3] = test system: Staphylococcus aureus strain Newman; details: for S. aureus MIC: strain Newman; for Minimum Bactericidal Concentration (MBC), S. aureus: no colonies on BHI agar after 24 h 37°C
# Protocol: as §1, §2
# [4] = Peptides stability in human sera (RP-HPLC)
# Protocol: Peptides stability in human sera. […] The initial time was recorded, and at known time intervals, 100 μL of reaction solution was removed and quenched by adding 200 μL of 95% EtOH and adjusted at pH=2 to eliminate the effect of peptides adsorption to the protein of the human serum. The cloudy reaction sample was cooled (4° C.) for 15 minutes and then spun at 14 000 rpm (Eppendorf centrifuge) for 4 minutes to pellet the precipitated serum proteins.
# The different peptides were incubated with human serum up to 10 hours, and their stability was analyzed and their half-lives determined by RP-HPLC (FIG. 1).
# [5] = test system: VISA strain S. aureus Mu 50; details: Table 2
# [6] = test system: MRSA strain S. aureus N315; details: Table 2
# [7] = Table 2, starting concentration 500 μM
# [8] = Table 1, 20 h 37°C, maximal concentration 1 mg/mL
molecule,measurement,setting,value
H-FFWLSRTK-NH2 [Pep5],Human cells H50 (peptide concentration at which half of the human erythrocytes are lysed),[1],"nd (not detectable at the maximal concentration tested (1 mg/mL, 300 to 900 μM))"
same,"MIC, fold higher than Pep4, E. coli",[2],two-fold
same,"MIC, fold higher than Pep4, S. aureus",[3],two-fold
"N=C(N)NCCC[C@@H]1NC(=O)[C@H](Cc2c[nH]c3ccccc23)NC(=O)[C@H](Cc2ccccc2)NC(=O)CN(Cc2cccc3ccccc23)NC(=O)[C@H](CCCCN)NC(=O)CN(CC(O)CO)NC(=O)[C@H](CCCNC(=N)N)NC1=O (stereo partly shown) [Pep12, (Ψ1Nal-FWRR-ΨHyt-K)] (cyclo([azaβ3(1Nal)]FWRR[X1]K))",Human cells % hemolysis at 500 μM,[1],98%
same,Human cells H50,[1],220 µM
same,E. coli MIC,[2]; [7],16 µM
same,S. aureus MIC,[3]; [7],16 µM
"N=C(N)NCCC[C@@H]1NC(=O)[C@H](Cc2c[nH]c3ccccc23)NC(=O)[C@H](Cc2ccccc2)NC(=O)[C@H](Cc2ccccc2)NC(=O)[C@H](CCCCN)NC(=O)CN(CC(O)CO)NC(=O)[C@H](CCCNC(=N)N)NC1=O (stereo partly shown) [Pep11, (FFWRRΨHytK)] (cyclo(FFWRR[X1]K))",fold less haemolytic on human erythrocytes than PepA1,[1],about 12 fold
same,fold less hemolytic compared to Pep10,[1],six-fold
same,hemolysis at 0.2 mg/mL,[1],10%
same,Human cells H50 (peptide concentration at which half of the human erythrocytes are lysed),[1],840 µM
same,hemolysis at the MIC,[1],no hemolysis
same,higher stability in human serum than the PepA1 parental peptide,[4],~240 fold
same,E. coli MIC,[2]; [8],3 µM
same,"Minimum Bactericidal Concentration (MBC), E. coli",[2],8 µM
same,S. aureus MIC,[3]; [8],7 µM
same,fold higher antibacterial activity compared to Pep10,[3]; against the two model bacteria,four-fold
same,"Minimum Bactericidal Concentration (MBC), S. aureus",[3],16 µM
H-FFSYWLSRRTK-NH2 [Pep2],Human cells H50 (peptide concentration at which half of the human erythrocytes are lysed),[1],"nd (not detectable at the maximal concentration tested (1 mg/mL, 300 to 900 μM))"
same,E. coli MIC,[2]; [8],80 µM
same,S. aureus MIC,[3]; [8],170 µM
"CC(C)[C@@H]1NC(=O)[C@H](CCCNC(=N)N)NC(=O)[C@H](CCCNC(=N)N)NC(=O)CN(Cc2cccc3ccccc23)NC(=O)[C@H](Cc2ccccc2)NC(=O)CN(Cc2cccc3ccccc23)NC(=O)[C@H](CCCCN)NC1=O [Pep19, (Ψ1Nal-F-Ψ1Nal-RRVK)] (cyclo([azaβ3(1Nal)]F[azaβ3(1Nal)]RRVK))",Human cells % hemolysis at 500 μM,[1],7%
same,Human cells H50,[1],nd (not detectable at the maximal concentration tested (500 μM))
same,E. coli MIC,[2]; [7],4 µM
same,S. aureus MIC,[3]; [7],4 µM
same,VISA MIC,[5],4 µM
same,MRSA MIC,[6],4 µM
"CC(C)C[C@@H]1NC(=O)[C@H](Cc2c[nH]c3ccccc23)NC(=O)[C@H](Cc2ccccc2)NC(=O)[C@H](Cc2ccccc2)NC(=O)[C@H](CCCCN)NC(=O)CN(CC(O)CO)NC(=O)[C@H](CCCNC(=N)N)NC(=O)[C@H](CCCNC(=N)N)NC1=O (stereo partly shown) [Pep10, (FFWLRRΨHytK)] (cyclo(FFWLRR[X1]K))",lysis of human erythrocytes (in words),[1],slightly hemolytic
same,Human cells H50 (peptide concentration at which half of the human erythrocytes are lysed),[1],150 µM
same,"MIC, fold lower compared to Pep9, E. coli",[2],seven-fold
same,E. coli MIC,[2]; [8],13 µM
same,"MIC, fold lower compared to Pep9, S. aureus",[3],four
same,S. aureus MIC,[3]; [8],25 µM
C[C@@H](O)[C@@H]1NC(=O)[C@H](CCCNC(=N)N)NC(=O)[C@H](CCCNC(=N)N)NC(=O)[C@H](CO)NC(=O)[C@H](Cc2c[nH]c3ccccc23)NC(=O)[C@H](Cc2ccccc2)NC(=O)[C@H](Cc2ccccc2)NC(=O)[C@H](CCCCN)NC1=O [Pep7] (cyclo(FFWSRRTK)),Human cells H50 (peptide concentration at which half of the human erythrocytes are lysed),[1],14 µM
same,E. coli MIC,[2]; [8],13 µM
same,S. aureus MIC,[3]; [8],30 µM
same,"antibacterial activity, fold increase compared to Pep6",[3]; species not specified,two-fold
H-FFSWLSRRTK-NH2 [Pep3],Human cells H50 (peptide concentration at which half of the human erythrocytes are lysed),[1],"nd (not detectable at the maximal concentration tested (1 mg/mL, 300 to 900 μM))"
same,E. coli MIC,[2]; [8],95 µM
same,S. aureus MIC,[3]; [8],190 µM
"CC(C)[C@@H]1NC(=O)[C@H](CCCNC(=N)N)NC(=O)[C@H](CCCNC(=N)N)NC(=O)[C@H](Cc2c[nH]c3ccccc23)NC(=O)[C@H](Cc2ccccc2)NC(=O)[C@H](Cc2ccccc2)NC(=O)[C@H](CCCCN)NC1=O [Pep18, (FFWRRVK)] (cyclo(FFWRRVK))",E. coli MIC,[2]; [7],4 µM
same,S. aureus MIC,[3]; [7],4 µM
same,VISA MIC,[5],8 µM
same,MRSA MIC,[6],8 µM
"CC(C)N1CC(=O)N[C@@H](CCCCN)C(=O)NN(Cc2ccc3ccccc3c2)CC(=O)N[C@@H](Cc2ccccc2)C(=O)NN(Cc2ccc3ccccc3c2)CC(=O)N[C@@H](CCCNC(=N)N)C(=O)N[C@@H](CCCNC(=N)N)C(=O)N1 [Pep16, (Ψ2Nal-F-Ψ2Nal-RR-ΨV-K)]",Human cells H50,[1],nd (not detectable at the maximal concentration tested (500 μM))
"CC(C)C[C@H](NC(=O)[C@H](Cc1c[nH]c2ccccc12)NC(=O)[C@H](Cc1ccccc1)NC(=O)[C@@H](N)Cc1ccccc1)C(=O)N[C@@H](CCCNC(=N)N)C(=O)N[C@@H](CCCNC(=N)N)C(=O)NN(CC(=O)N[C@@H](CCCCN)C(N)=O)CC(O)CO (stereo partly shown) [Pep9, H-FFWLRRΨHytK-NH2] (H-FFWLRR[X1]K-NH2)",lysis of human erythrocytes (in words),[1],did not trigger detectable lysis
same,Human cells H50 (peptide concentration at which half of the human erythrocytes are lysed),[1],"nd (not detectable at the maximal concentration tested (1 mg/mL, 300 to 900 μM))"
same,E. coli MIC,[2]; [8],100 µM
same,"MIC, fold lower compared to Pep4, S. aureus",[3],two-fold
same,S. aureus MIC,[3]; [8],100 µM
H-FFWLSRRTK-NH2 [Pep4],Human cells H50 (peptide concentration at which half of the human erythrocytes are lysed),[1],"nd (not detectable at the maximal concentration tested (1 mg/mL, 300 to 900 μM))"
same,E. coli MIC,[2]; [8],100 µM
same,S. aureus MIC,[3]; [8],200 µM
"C[C@@H](O)[C@@H]1NC(=O)[C@H](CCCNC(=N)N)NC(=O)[C@H](CCCNC(=N)N)NC(=O)[C@H](Cc2c[nH]c3ccccc23)NC(=O)[C@H](Cc2ccccc2)NC(=O)[C@H](Cc2ccccc2)NC(=O)[C@H](CCCCN)NC1=O [Pep8, (FFWRRTK)] (cyclo(FFWRRTK))",fold less hemolytic than Pep7,[1],10 fold
same,Human cells H50 (peptide concentration at which half of the human erythrocytes are lysed),[1],160 µM
same,fold more antibacterial than Pep7,[3]; species not specified,~3 fold
CC(C)C[C@@H]1NC(=O)[C@H](Cc2c[nH]c3ccccc23)NC(=O)[C@H](Cc2ccccc2)NC(=O)[C@H](Cc2ccccc2)NC(=O)[C@H](CCCCN)NC(=O)[C@H]([C@@H](C)O)NC(=O)[C@H](CCCNC(=N)N)NC(=O)[C@H](CCCNC(=N)N)NC(=O)[C@H](CO)NC1=O [Pep6] (cyclo(FFWLSRRTK)),lysis of human erythrocytes (in words),[1],substantial hemolysis
same,Human cells H50 (peptide concentration at which half of the human erythrocytes are lysed),[1],5 µM
same,stabilizing effect in human serum compared with linear Pep4,[4],~320 fold
same,"MIC, fold reduced compared to Pep5, E. coli",[2],ten-fold
same,"MIC, fold reduced compared to Pep5, S. aureus",[3],ten-fold
same,fold higher activity than linear Pep4,[3]; species not specified,4 fold
"N=C(N)NCCC[C@@H]1NC(=O)CN(Cc2ccc3ccccc3c2)NC(=O)[C@H](Cc2ccccc2)NC(=O)[C@H](Cc2ccccc2)NC(=O)[C@H](CCCCN)NC(=O)CN(CC(O)CO)NC(=O)[C@H](CCCNC(=N)N)NC1=O (stereo partly shown) [Pep15, (FFΨ2-Nal-RR-ΨHyt-K)] (cyclo(FF[X2]RR[X1]K))",Human cells % hemolysis at 500 μM,[1],3%
same,Human cells H50,[1],nd (not detectable at the maximal concentration tested (500 μM))
same,E. coli MIC,[2]; [7],2 µM
same,S. aureus MIC,[3]; [7],2 µM
same,VISA MIC,[5],2 µM
same,MRSA MIC,[6],2 µM
"H-MLIFVHIIAPVISGCAIAFFSYWLSRRNTK-NH2 [PepA1, reference compound]",hemolysis at 0.2 mg/mL,[1],50%
same,Human cells H50 (peptide concentration at which half of the human erythrocytes are lysed),[1],70 µM
same,hemolysis at the MIC,[1],20%
same,E. coli MIC,[2]; [8],8 µM
same,"Minimum Bactericidal Concentration (MBC), E. coli",[2],16 µM
same,S. aureus MIC,[3]; [8],8 µM
same,"Minimum Bactericidal Concentration (MBC), S. aureus",[3],16 µM
"CC(C)N(CC(=O)N[C@@H](CCCCN)C(N)=O)NC(=O)[C@H](CCCNC(=N)N)NC(=O)[C@H](CCCNC(=N)N)NC(=O)CN(Cc1ccc2ccccc2c1)NC(=O)[C@H](Cc1ccccc1)NC(=O)CN(N)Cc1ccc2ccccc2c1 [Pep21, H-Ψ2Nal-F-Ψ2Nal-RR-ΨV-K-NH2]",Human cells H50,[1],nd (not detectable at the maximal concentration tested (500 μM))
